Measured values published in US8871788B2, “Substituted N-alkyl and N-acyl tetrahydro-isoquinoline derivatives, preparation and therapeutic use thereof” (Sanofi, priority 2010, dated 2014).

How the values were obtained:
[1] = biological target: T1, rhesus (Macacca Mulatta) H3 receptor (Macaca mulatta, UniProt Q865E1); assay: Rhesus H3 [3H]-Methylhistamine radioligand binding assay (SPA); design: species or system rhesus monkey (Macacca Mulatta); details: [3H]-Methylhistamine 2 nM, rhesus H3 membranes, Cheng-Prusoff
T1 construct: 445 amino acid H3 receptor; expressed in transfected cells; host or cells: Flp-In T-REx 293 Cell Line (Invitrogen), pcDNA5/FRT/TO, induced with tetracycline
T1 sequence (Q865E1 1-445): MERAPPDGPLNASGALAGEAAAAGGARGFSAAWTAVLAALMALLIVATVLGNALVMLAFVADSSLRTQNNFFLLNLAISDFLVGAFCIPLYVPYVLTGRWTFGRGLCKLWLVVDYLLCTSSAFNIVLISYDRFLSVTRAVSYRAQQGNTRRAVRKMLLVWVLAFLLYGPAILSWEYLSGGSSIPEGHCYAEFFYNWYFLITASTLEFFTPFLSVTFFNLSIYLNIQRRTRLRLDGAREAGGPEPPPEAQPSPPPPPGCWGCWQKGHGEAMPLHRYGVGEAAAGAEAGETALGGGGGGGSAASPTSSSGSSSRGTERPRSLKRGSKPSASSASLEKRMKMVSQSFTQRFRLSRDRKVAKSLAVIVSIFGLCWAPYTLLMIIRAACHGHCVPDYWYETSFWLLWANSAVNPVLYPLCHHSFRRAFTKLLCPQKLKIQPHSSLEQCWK
Description: (§1) Rhesus H3 membranes were prepared from the Flp-In T-REx 293 Cell Line (Invitrogen) stably transfected with pcDNA5/FRT/TO (Invitrogen) containing the rhesus monkey (Macacca Mulatta) 445 amino acid H3 receptor. (Genbank #AY231164). Stably transfected cultures were amplified in tissue culture flasks by standard tissue culture methods and induced to express rhesus H3 by exposure to 500 ng/ml tetracycline (Cellgro) for 24 hours. After induction, cells were dissociated from flasks utilizing Cell Stripper (Cellgro). Cells were centrifuged (1K×g, 5 min) and pellet frozen in an ethanol-dry ice bath to disrupt cell membranes. Frozen cell pellet was re-suspended in 5 mM HEPES (pH 7.4, Invitrogen) at 10 ml/1000 cm2 of harvested cells. The cell suspension was drawn through an 18 gauge needle (2-3×) followed by a 23 gauge needle (2-3×) to further disrupt cell membranes. The cell suspension was centrifuged (40K×g, 30 min). Cell membrane pellet was re-suspended in 5 mM HEPES (pH 7.4, Invitrogen) at a final protein concentration of 10 mg/ml. Rhesus H3 membranes were stored under liquid nitrogen prior to use in [3H]-Methylhistamine and GTPγS radioligand binding assays.
(§2) Rhesus H3 radioligand binding assay was performed using rhesus H3 receptor membranes (prepared as described above), [3H]-Methylhistamine (Perkin Elmer) and WGA SPA beads (wheat germ agglutinin scintillation proximity assay) beads (Amersham). The assay was performed in 96-well Opti-Plates (Packard). Each reaction contained 50 μl rhesus H3 membranes (20-30 μg total protein), 50 μl WGA SPA beads (0.1 μg) and 50 μl of 83Ci/mmol [^3H]-Methylhistamine (final concentration 2 nM) and 50 μl of tested compound. The compounds of this invention and/or vehicle were diluted with binding buffer from 10 mM DMSO stocks. Assay plates were sealed with TopSeal (Perkin Elmer) and mixed on shaker (25° C., 1 hour). Assay plates were read on TopCount scintillation counter (Packard). Results were analyzed by Hill transformation and Ki values were determined by Cheng-Prusoff equation. Similar procedure was employed to determine the binding data for rat.

[2] = biological target: Rat H3 (Rattus norvegicus, UniProt Q9QYN8); assay: Rat H3 radioligand binding (similar procedure); details: rat H3, similar procedure to rhesus binding
Sequence of Rat H3 (Q9QYN8 whole entry): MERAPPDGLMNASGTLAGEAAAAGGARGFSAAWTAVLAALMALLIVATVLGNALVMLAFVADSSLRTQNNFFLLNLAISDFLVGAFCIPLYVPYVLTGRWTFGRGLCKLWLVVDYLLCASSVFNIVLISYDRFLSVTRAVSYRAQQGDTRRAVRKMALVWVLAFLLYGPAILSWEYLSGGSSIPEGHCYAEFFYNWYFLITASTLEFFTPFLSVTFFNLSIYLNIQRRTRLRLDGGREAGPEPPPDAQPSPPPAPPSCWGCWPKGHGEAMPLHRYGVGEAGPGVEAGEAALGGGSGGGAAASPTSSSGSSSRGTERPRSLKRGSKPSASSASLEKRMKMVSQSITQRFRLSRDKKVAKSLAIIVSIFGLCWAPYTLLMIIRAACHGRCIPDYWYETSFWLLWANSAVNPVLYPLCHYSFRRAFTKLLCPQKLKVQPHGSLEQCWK
Description: as §2

[3] = biological target: T2, rhesus H3 (Macaca mulatta, UniProt Q865E1); assay: GTPγS radioligand binding assay, rhesus H3 constitutive functional activity in cell membranes; assay type: biochemical, rhesus monkey (Macacca Mulatta); details: relative to basal levels
T2 construct: 445 amino acid H3 receptor; expressed in transfected cells; host or cells: Flp-In T-REx 293 Cell Line (Invitrogen), pcDNA5/FRT/TO, induced with tetracycline
T2 sequence (Q865E1 1-445): as the sequence (Q865E1 1-445) above
Description: as §1

SMILES | Ki [1] [nM] | Ki [2] [nM] | GTPγS-35 ASSAY % Inverse Agonism [3] [%]
C[C@H]1CCCN1[C@H]1CCN(c2ccc3c(c2)CN(C(=O)C2CCOCC2)CC3)C1 [Example 2, [7-((2S,3′S)-2-Methyl-[1,3′]bipyrrolidinyl-1′-yl)-3,4-dihydro-1H-isoquinolin-2-yl]-(tetrahydro-pyran-4-yl)-methanone] | 0.66 | 0.91 | −25.5
CCOC(=O)N1CCC(N2CCc3cc(N4CC[C@H](N5CCC[C@@H]5C)C4)ccc3C2)CC1 [Example 3, 4-[6-((2S,3′S)-2-Methyl-[1,3′]bipyrrolidinyl-1′-yl)-3,4-dihydro-1H-isoquinolin-2-yl]-piperidine-1-carboxylic acid ethyl ester] | 0.38 | 0.97 | 
CCOC(=O)C1CCC(N2CCc3cc(N4CC[C@H](N5CCC[C@@H]5C)C4)ccc3C2)CC1 (stereo partly drawn) [Example 5, 4-[6-((2S,3′S)-2-Methyl-[1,3′]bipyrrolidinyl-1′-yl)-3,4-dihydro-1H-isoquinolin-2-yl]-cyclohexanecarboxylic acid ethyl ester] | 0.57 | 0.59 | −40.0
C[C@H]1CCCN1[C@H]1CCN(c2ccc3c(c2)CCN(Cc2ccc4c(c2)OCCO4)C3)C1 [Example 8, 2-(2,3-Dihydro-benzo[1,4]dioxin-6-ylmethyl)-6-((2S,3′S)-2-methyl-[1,3′]bipyrrolidinyl-1′-yl)-1,2,3,4-tetrahydro-isoquinoline] | 0.46 | 6.9 | −9.1
C[C@H]1CCCN1[C@H]1CCN(c2ccc3c(c2)CCN(Cc2ccc(F)cc2)C3)C1 [Example 9, 2-(4-Fluoro-benzyl)-6-((2S,3′S)-2-methyl-[1,3′]bipyrrolidinyl-1′-yl)-1,2,3,4-tetrahydro-isoquinoline] | 0.37 | 0.19 | −6.2
CC(C)N1CCc2cc(N3CC[C@H](N4CCC[C@@H]4C)C3)ccc2C1 [Example 10, 2-Isopropyl-6-((2S,3′S)-2-methyl-[1,3′]bipyrrolidinyl-1′-yl)-1,2,3,4-tetrahydro-isoquinoline] | 0.75 | 0.91 | −9.3
C[C@H]1CCCN1[C@H]1CCN(c2ccc3c(c2)CCN(C(=O)C(c2ccccc2)c2ccccc2)C3)C1 [Example 13, 1-[6-((2S,3′S)-2-Methyl-[1,3′]bipyrrolidinyl-1′-yl)-3,4-dihydro-1H-isoquinolin-2-yl]-2,2-diphenyl-ethanone] | 3.7 | 7.7 | −16.1
C[C@H]1CCCN1[C@H]1CCN(c2ccc3c(c2)CCN(C(=O)c2cccnc2)C3)C1 [Example 14, [6-((2S,3′S)-2-Methyl-[1,3′]bipyrrolidinyl-1′-yl)-3,4-dihydro-1H-isoquinolin-2-yl]-pyridin-3-yl-methanone] | 0.28 | 2.6 | −17.2
C[C@H]1CCCN1[C@H]1CCN(c2ccc3c(c2)CCN(C(=O)c2ccoc2)C3)C1 [Example 15, Furan-3-yl-[6-((2S,3′S)-2-methyl-[1,3′]bipyrrolidinyl-1′-yl)-3,4-dihydro-1H-isoquinolin-2-yl]-methanone] | 0.22 | 2.7 | −16.8
C[C@H]1CCCN1[C@H]1CCN(c2ccc3c(c2)CCN(C(=O)c2ccccc2)C3)C1 [Example 16, [6-((2S,3′S)-2-Methyl-[1,3′]bipyrrolidinyl-1′-yl)-3,4-dihydro-1H-isoquinolin-2-yl]-phenyl-methanone] | 0.29 | 7.3 | −18.9
C[C@H]1CCCN1[C@H]1CCN(c2ccc3c(c2)CCN(C(=O)c2ccc(F)cc2)C3)C1 [Example 17, (4-Fluoro-phenyl)-[6-((2S,3′S)-2-methyl-[1,3′]bipyrrolidinyl-1′-yl)-3,4-dihydro-1H-isoquinolin-2-yl]-methanone] | 0.19 | 3.1 | −10.4
C[C@H]1CCCN1[C@H]1CCN(c2ccc3c(c2)CCN(C(=O)C2CCOCC2)C3)C1 [Example 19, [6-((2S,3′S)-2-Methyl-[1,3′]bipyrrolidinyl-1′-yl)-3,4-dihydro-1H-isoquinolin-2-yl]-(tetrahydro-pyran-4-yl)-methanone] | 0.12 | 0.22 | −17.4
C[C@H]1CCCN1[C@H]1CCN(c2ccc3c(c2)CCN(C(=O)C2CCCC2)C3)C1 [Example 21, Cyclopentyl-[6-((2S,3′S)-2-methyl-[1,3′]bipyrrolidinyl-1′-yl)-3,4-dihydro-1H-isoquinolin-2-yl]-methanone] | 0.15 | 0.51 | −12.2

More lines, in order of falling Ki [1], values ahead:

Ki [1] [nM] | Ki [2] [nM] | GTPγS-35 ASSAY % Inverse Agonism [3] [%] | SMILES
22 | 140 | −23.0 | C[C@H]1CCCN1[C@H]1CCN(c2ccc3c(c2)CCN(C(=O)c2cc4c(ccn4CCOC[Si](C)(C)C)s2)C3)C1 [Example 20, [6-((2S,3′S)-2-Methyl-[1,3′]bipyrrolidinyl-1′-yl)-3,4-dihydro-1H-isoquinolin-2-yl]-[4-(2-trimethylsilanylmethoxy-ethyl)-4H-thieno[3,2-b]pyrrol-2-yl]-methanone]
2.8 | 6.2 | −26.1 | COc1ccc(C(=O)N2CCc3cc(N4CC[C@H](N5CCC[C@@H]5C)C4)ccc3C2)cc1 [Example 12, (4-Methoxy-phenyl)-[6-((2S,3′S)-2-methyl-[1,3′]bipyrrolidinyl-1′-yl)-3,4-dihydro-1H-isoquinolin-2-yl]-methanone]
1.2 | 0.19 | −6.9 | C[C@H]1CCCN1[C@H]1CCN(c2ccc3c(c2)CCN(CC2CCCC2)C3)C1 [Example 7, 2-Cyclopentylmethyl-6-((2S,3′S)-2-methyl-[1,3′]bipyrrolidinyl-1′-yl)-1,2,3,4-tetrahydro-isoquinoline]
0.9 | 0.74 | −24.9 | C[C@H]1CCCN1[C@H]1CCN(c2ccc3c(c2)CCN(C2CCN(C(=O)OC(C)(C)C)C2)C3)C1 (stereo partly drawn) [Example 6, 3-[6-((2S,3′S)-2-Methyl-[1,3′]bipyrrolidinyl-1′-yl)-3,4-dihydro-1H-isoquinolin-2-yl]-pyrrolidine-1-carboxylic acid tert-butyl ester]
0.35 | 0.31 | −7.9 | C[C@H]1CCCN1[C@H]1CCN(c2ccc3c(c2)CCN(C2CCC(NC(=O)OC(C)(C)C)CC2)C3)C1 (stereo partly drawn) [Example 11, {4-[6-((2S,3′S)-2-Methyl-[1,3′]bipyrrolidinyl-1′-yl)-3,4-dihydro-1H-isoquinolin-2-yl]-cyclohexyl}-carbamic acid tert-butyl ester]
0.11 | 0.05 | −28.0 | C[C@H]1CCCN1[C@H]1CCN(c2ccc3c(c2)CCN(C2CCOCC2)C3)C1.O=C(O)C(F)(F)F [Example 4, 6-((2S,3′S)-2-Methyl-[1,3′]bipyrrolidinyl-1′-yl)-2-(tetrahydro-pyran-4-yl)-1,2,3,4-tetrahydro-isoquinoline hydrochloride]
0.094 | 0.24 | −10.7 | C[C@H]1CCCN1[C@H]1CCN(c2ccc3c(c2)CCN(C(=O)C2CCCCC2)C3)C1 [Example 18, Cyclohexyl-[6-((2S,3′S)-2-methyl-[1,3′]bipyrrolidinyl-1′-yl)-3,4-dihydro-1H-isoquinolin-2-yl]-methanone]
